Reference: PubChem BioAssay AID1918944 (Molecular Pharmacology Branch, DTP, NCI, 2023)

Tested on: 786-0 complex spheroid viability
Test: Anticancer human tumor 786-0 cell line growth inhibition;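 further: spheroids exposed to agents for seven days before readout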
Settings: for IC50: curve of first compound; for viability, T/C: stronger effect = lower value
Outline: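 Drug combinations with the LSD1 inhibitor iadademstat tested on tumor cells co-cultured as spheroids with endothelial cells and mesenchymal stem cells. Concentrations descended in half-log increments from clinical Cmax or 10 microM.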

[1] = second compound 0.1 µM, first compound 0.0316 µM
[2] = second compound 0.1 µM, first compound 0.1 µM
[3] = second compound 0.1 µM, first compound 0.316 µM
[4] = second compound 0.1 µM, first compound 1 µM
[5] = second compound 0.316 µM, first compound 0.0316 µM
[6] = second compound 0.316 µM, first compound 0.1 µM
[7] = second compound 0.316 µM, first compound 0.316 µM
[8] = second compound 0.316 µM, first compound 1 µM
[9] = second compound 1 µM, first compound 0.0316 µM
[10] = second compound 1 µM, first compound 0.1 µM
[11] = second compound 1 µM, first compound 0.316 µM
[12] = second compound 1 µM, first compound 1 µM
[13] = second compound 3.16 µM, first compound 0.0316 µM
[14] = second compound 3.16 µM, first compound 0.1 µM
[15] = second compound 3.16 µM, first compound 0.316 µM
[16] = second compound 3.16 µM, first compound 1 µM
[17] = second compound 10 µM, first compound 0.0316 µM
[18] = second compound 10 µM, first compound 0.1 µM
[19] = second compound 10 µM, first compound 0.316 µM
[20] = second compound 10 µM, first compound 1 µM

**Q.** Which IC50 (second compound 0.1 µM) does the source give for `Nc1ccn(C2OC(CO)C(O)C2(F)F)c(=O)n1` (stereo not given) + NC1CCC(NC2CC2c2ccccc2)CC1 here?
**A.** Its IC50 is under 0.949 nM.

**Q.** And the IC50 (second compound 0.316 µM)?
**A.** Its IC50 is under 0.949 nM.

**Q.** What about the IC50 (second compound 1 µM) of the same compound?
**A.** Its IC50 is under 0.949 nM.

**Q.** What about the IC50 (second compound 3.16 µM) of the same compound?
**A.** The IC50 was under 0.949 nM.

**Q.** What about the IC50 (second compound 10 µM) of the same compound?
**A.** Its IC50 is under 0.949 nM.

**Q.** And the viability, T/C (second compound 0.1 µM, first compound 0.000949 µM)?
**A.** The viability, T/C was 4.09%.

**Q.** What about the viability, T/C (second compound 0.1 µM, first compound 0.003 µM) of the same compound?
**A.** Its viability, T/C is 2.17%.

**Q.** And the viability, T/C (second compound 0.1 µM, first compound 0.00949 µM)?
**A.** The viability, T/C was 2.51%.

**Q.** And the viability, T/C (second compound 0.1 µM, first compound 0.03 µM)?
**A.** Its viability, T/C is 5.79%.

**Q.** And the viability, T/C (second compound 0.1 µM, first compound 0.0949 µM)?
**A.** The viability, T/C was 3.38%.

**Q.** What about the viability, T/C (second compound 0.1 µM, first compound 0.3 µM) of the same compound?
**A.** The viability, T/C was 3.63%.

**Q.** And the viability, T/C (second compound 0.316 µM, first compound 0.000949 µM)?
**A.** The viability, T/C was 4.14%.

**Q.** What about the viability, T/C (second compound 0.316 µM, first compound 0.003 µM) of the same compound?
**A.** The viability, T/C was 2.73%.

**Q.** What about the viability, T/C (second compound 0.316 µM, first compound 0.00949 µM) of the same compound?
**A.** The viability, T/C was 2.97%.

**Q.** And the viability, T/C (second compound 0.316 µM, first compound 0.03 µM)?
**A.** Its viability, T/C is 3.95%.

**Q.** And the viability, T/C (second compound 0.316 µM, first compound 0.0949 µM)?
**A.** Its viability, T/C is 3.04%.

**Q.** And the viability, T/C (second compound 0.316 µM, first compound 0.3 µM)?
**A.** Its viability, T/C is 3.93%.

**Q.** What about the viability, T/C (second compound 1 µM, first compound 0.000949 µM) of the same compound?
**A.** The viability, T/C was 4.18%.

**Q.** What about the viability, T/C (second compound 1 µM, first compound 0.003 µM) of the same compound?
**A.** The viability, T/C was 4.49%.

**Q.** What about the viability, T/C (second compound 1 µM, first compound 0.00949 µM) of the same compound?
**A.** Its viability, T/C is 3.51%.

**Q.** And the viability, T/C (second compound 1 µM, first compound 0.03 µM)?
**A.** Its viability, T/C is 3.28%.

**Q.** What about the viability, T/C (second compound 1 µM, first compound 0.0949 µM) of the same compound?
**A.** The viability, T/C was 5.66%.

**Q.** And the viability, T/C (second compound 1 µM, first compound 0.3 µM)?
**A.** The viability, T/C was 4.13%.

**Q.** And the viability, T/C (second compound 3.16 µM, first compound 0.000949 µM)?
**A.** Its viability, T/C is 5.7%.

**Q.** What about the viability, T/C (second compound 3.16 µM, first compound 0.003 µM) of the same compound?
**A.** Its viability, T/C is 3.25%.

**Q.** And the viability, T/C (second compound 3.16 µM, first compound 0.00949 µM)?
**A.** Its viability, T/C is 3.12%.

**Q.** And the viability, T/C (second compound 3.16 µM, first compound 0.03 µM)?
**A.** Its viability, T/C is 3.88%.

**Q.** What about the viability, T/C (second compound 3.16 µM, first compound 0.0949 µM) of the same compound?
**A.** The viability, T/C was 3.97%.

**Q.** And the viability, T/C (second compound 3.16 µM, first compound 0.3 µM)?
**A.** The viability, T/C was 4.18%.

**Q.** And the viability, T/C (second compound 10 µM, first compound 0.000949 µM)?
**A.** Its viability, T/C is 4.1%.

**Q.** And the viability, T/C (second compound 10 µM, first compound 0.003 µM)?
**A.** The viability, T/C was 2.62%.

**Q.** And the viability, T/C (second compound 10 µM, first compound 0.00949 µM)?
**A.** The viability, T/C was 3%.

**Q.** And the viability, T/C (second compound 10 µM, first compound 0.03 µM)?
**A.** The viability, T/C was 3.34%.

**Q.** And the viability, T/C (second compound 10 µM, first compound 0.0949 µM)?
**A.** The viability, T/C was 2.68%.

**Q.** What about the viability, T/C (second compound 10 µM, first compound 0.3 µM) of the same compound?
**A.** The viability, T/C was 3.7%.

**Q.** Which results are given for `COc1cc(Nc2ncc3c(n2)-c2ccc(Cl)cc2C(c2c(F)cccc2OC)=NC3)ccc1C(=O)O` + NC1CC1c1ccc(-c2cccc(O)c2)cc1?
**A.** IC50 (second compound 0.1 µM): 584 nM; IC50 (second compound 0.316 µM): 638 nM; IC50 (second compound 1 µM): 431 nM; IC50 (second compound 3.16 µM): 588 nM; IC50 (second compound 10 µM): 955 nM; viability, T/C (second compound 0.1 µM, first compound 0.00316 µM): 96.3%; viability, T/C (second compound 0.1 µM, first compound 0.01 µM): 86.8%; viability, T/C [1]: 69%; viability, T/C [2]: 65%; viability, T/C [3]: 55.5%; viability, T/C [4]: 45.4%; viability, T/C (second compound 0.316 µM, first compound 0.00316 µM): 105%; viability, T/C (second compound 0.316 µM, first compound 0.01 µM): 94.5%; viability, T/C [5]: 77%; viability, T/C [6]: 67.1%; viability, T/C [7]: 55.4%; viability, T/C [8]: 46.4%; viability, T/C (second compound 1 µM, first compound 0.00316 µM): 93.3%; viability, T/C (second compound 1 µM, first compound 0.01 µM): 83.6%; viability, T/C [9]: 70.3%; viability, T/C [10]: 66.9%; viability, T/C [11]: 52%; viability, T/C [12]: 42.2%; viability, T/C (second compound 3.16 µM, first compound 0.00316 µM): 89.7%; viability, T/C (second compound 3.16 µM, first compound 0.01 µM): 86.1%; viability, T/C [13]: 68.5%; viability, T/C [14]: 66.1%; viability, T/C [15]: 56.9%; viability, T/C [16]: 44.7%; viability, T/C (second compound 10 µM, first compound 0.00316 µM): 84.6%; viability, T/C (second compound 10 µM, first compound 0.01 µM): 77.7%; viability, T/C [17]: 67.9%; viability, T/C [18]: 72.2%; viability, T/C [19]: 56.7%; viability, T/C [20]: 49.4%

**Q.** Which IC50 (second compound 0.1 µM) does the source give for `CC1(C)CCC(CN2CCN(c3ccc(C(=O)NS(=O)(=O)c4ccc(NCC5CCOCC5)c([N+](=O)[O-])c4)c(Oc4cnc5[nH]ccc5c4)c3)CC2)=C(c2ccc(Cl)cc2)C1` + NC1CCC(NC2CC2c2ccccc2)CC1 here?
**A.** The IC50 was over 10000 nM.

**Q.** What about the IC50 (second compound 0.316 µM) of the same compound?
**A.** Its IC50 is over 10000 nM.

**Q.** And the IC50 (second compound 1 µM)?
**A.** The IC50 was over 10000 nM.

**Q.** What about the IC50 (second compound 3.16 µM) of the same compound?
**A.** Its IC50 is 9290 nM.

**Q.** What about the IC50 (second compound 10 µM) of the same compound?
**A.** The IC50 was 6260 nM.

**Q.** And the viability, T/C [1]?
**A.** The viability, T/C was 113%.

**Q.** What about the viability, T/C [2] of the same compound?
**A.** The viability, T/C was 117%.

**Q.** And the viability, T/C [3]?
**A.** Its viability, T/C is 110%.

**Q.** What about the viability, T/C [4] of the same compound?
**A.** The viability, T/C was 116%.

**Q.** And the viability, T/C (second compound 0.1 µM, first compound 3.16 µM)?
**A.** The viability, T/C was 103%.

**Q.** And the viability, T/C (second compound 0.1 µM, first compound 10 µM)?
**A.** The viability, T/C was 68.1%.

**Q.** And the viability, T/C [5]?
**A.** Its viability, T/C is 117%.

**Q.** And the viability, T/C [6]?
**A.** Its viability, T/C is 121%.

**Q.** What about the viability, T/C [7] of the same compound?
**A.** Its viability, T/C is 120%.

**Q.** And the viability, T/C [8]?
**A.** Its viability, T/C is 120%.

**Q.** And the viability, T/C (second compound 0.316 µM, first compound 3.16 µM)?
**A.** The viability, T/C was 106%.

**Q.** And the viability, T/C (second compound 0.316 µM, first compound 10 µM)?
**A.** The viability, T/C was 67.1%.

**Q.** What about the viability, T/C [9] of the same compound?
**A.** The viability, T/C was 116%.

**Q.** What about the viability, T/C [10] of the same compound?
**A.** The viability, T/C was 116%.

**Q.** What about the viability, T/C [11] of the same compound?
**A.** The viability, T/C was 118%.

**Q.** And the viability, T/C [12]?
**A.** Its viability, T/C is 108%.

**Q.** And the viability, T/C (second compound 1 µM, first compound 3.16 µM)?
**A.** The viability, T/C was 104%.

**Q.** And the viability, T/C (second compound 1 µM, first compound 10 µM)?
**A.** Its viability, T/C is 58.3%.

**Q.** What about the viability, T/C [13] of the same compound?
**A.** Its viability, T/C is 110%.

**Q.** What about the viability, T/C [14] of the same compound?
**A.** The viability, T/C was 109%.

**Q.** And the viability, T/C [15]?
**A.** The viability, T/C was 107%.

**Q.** And the viability, T/C [16]?
**A.** Its viability, T/C is 96%.

**Q.** And the viability, T/C (second compound 3.16 µM, first compound 3.16 µM)?
**A.** The viability, T/C was 85.3%.

**Q.** What about the viability, T/C (second compound 3.16 µM, first compound 10 µM) of the same compound?
**A.** Its viability, T/C is 47.4%.

**Q.** And the viability, T/C [17]?
**A.** Its viability, T/C is 90.2%.

**Q.** And the viability, T/C [18]?
**A.** Its viability, T/C is 94.6%.

**Q.** And the viability, T/C [19]?
**A.** The viability, T/C was 89.3%.

**Q.** What about the viability, T/C [20] of the same compound?
**A.** Its viability, T/C is 74.1%.

**Q.** What about the viability, T/C (second compound 10 µM, first compound 3.16 µM) of the same compound?
**A.** The viability, T/C was 63.2%.

**Q.** And the viability, T/C (second compound 10 µM, first compound 10 µM)?
**A.** The viability, T/C was 41.8%.
